Measured values from the SangsterLogP compilation.

Assays:
[1] = method code SF-RC, from PMID: 2883979; conditions: pH 10.0
[2] = method code SF, from DOI: 10.1021/jm9018146, PMID: 20232803; conditions: pH 7.4
[3] = method code SF-HPLC, from DOI: 10.1021/js950346l, PMID: 9109056
[4] = not given; remark: listed apart in the source
[5] = method code SF-AS, from DOI: 10.1007/bf02857814, PMID: 1608986
[6] = not given; remark: listed apart in the source
[7] = method code SF, from DOI: 10.1021/jm00123a006, PMID: 2918500; conditions: pH 7.4
[8] = method code SF-RC, from DOI: 10.1111/j.2042-7158.1976.tb04141.x, PMID: 6703
[9] = method code SF-AS, from DOI: 10.1021/es00127a005
[10] = method code SF, from DOI: 10.1016/s0223-5234(00)80025-2, PMID: 11278041; conditions: pH 7.4
[11] = not given; remark: listed apart in the source
[12] = method code SF-HPLC, from DOI: 10.1002/jps.2600840622; conditions: pH 7.0
[13] = not given; remark: listed apart in the source
[14] = method code SF-RC, from DOI: 10.1007/s00259-007-0645-5, PMID: 18057934; conditions: pH 7.4
[15] = method code SF, from DOI: 10.1074/jbc.m009093200, PMID: 11092892; conditions: pH 7.4
[16] = not given; remark: listed apart in the source
[17] = not given; remark: listed apart in the source
[18] = method code G-RC, from DOI: 10.1016/0300-483x(85)90031-9, PMID: 4049435
[19] = method code SF, from DOI: 10.1097/00004424-199009001-00048; conditions: pH 7.4
[20] = method code SF-AS, from DOI: 10.1016/0048-3575(89)90091-6
[21] = method code SF-RC, from DOI: 10.1016/j.nucmedbio.2007.04.005, PMID: 17591554; conditions: pH 7.4
[22] = not given; remark: listed apart in the source
[23] = method code SF-RC, from DOI: 10.1515/ract-2013-2119
[24] = method code SF-HPLC, from DOI: 10.1016/j.bmc.2015.09.009, PMID: 26385444
[25] = method code SF-RC, from DOI: 10.1016/j.mibio.2003.09.009; conditions: pH 7.4
[26] = not given; remark: listed apart in the source
[27] = method code SF-AS, from PMID: 582102; conditions: pH 3.0
[28] = method code SF-AS, from DOI: 10.1016/0006-2952(93)90503-o, PMID: 8373444; conditions: pH 7.4
[29] = not given; remark: listed apart in the source
[30] = method code SF, from Blakemore, C.; Brown, H.; Durant, J.; Emmett, C.; Ganellin, R.; Parsons, E.; Rasmussen, C. (1980). SK&F 92994: a new histamine H2-receptor antagonist. COMMUNICATIONS: Part II. Br. J. Pharmacol., …; conditions: pH 8.5
[31] = method code SF, from Zhang, Y. (2010). Determination and Correlation of 1-Octanol/Water Partition Coefficients for Six Quinolones from 293.15 K to 323.15 K. Chemical Research in Chinese Universities, 26(4)636-639.
[32] = method code SF-HPLC, from DOI: 10.1002/etc.5620170216
[33] = method code SF-HPLC, from DOI: 10.1021/jm1007903, PMID: 20828199; conditions: pH 7.4
[34] = method code SF-HPLC, from Gao, X.; Yu, Y.; Wang, Y.; Pi, J.; Zhang, W.; Xiao, X. (2013). Determination of equilibrium solubility and apparent partition coefficient of bakuchiol. West China Journal of Pharmaceutical Sciences, …
[35] = method code SF-RC, from DOI: 10.1267/nukl06010041, PMID: 16493513; conditions: pH 7.4
[36] = method code SF-AS, from Sengupta, C.; Mondal, K. (1986). Partition coefficients of some anticoagulants and coagulants in relation to their biological activity. Indian J Pharm Sci, 48(2)51-52.
[37] = method code SF-HPLC, from DOI: 10.1023/a:1016462801968, PMID: 3334410
[38] = not given; remark: listed apart in the source
[39] = not given; remark: listed apart in the source
[40] = not given; remark: listed apart in the source
[41] = not given; remark: listed apart in the source
[42] = method code SF-RC, from DOI: 10.1021/jm050166g.s001, PMID: 16162001; conditions: pH 7.4
[43] = not given; remark: listed apart in the source
[44] = not given; remark: listed apart in the source

**Q.** With `CN1CCC(N(Cc2ccccc2)c2ccccc2)CC1` as the compound, how does the logD [1] read?
**A.** 2.6

**Q.** For `C[C@]12CCC(=O)C[C@@H]1CC[C@@H]1[C@@H]2[C@@H](F)C[C@]2(C)[C@@H](O)CC[C@@H]12`, which logP is on record?
**A.** 3.5

**Q.** Which logD [2] does the source give for `CCOC(=O)[C@@]1(C)CSC(c2ccc(OCCOCCOC)cc2O)=N1` here?
**A.** 3

**Q.** With `COc1ccc2c(c1)c(CC(=O)O)c(C)n2C(=O)c1ccc(Cl)cc1` as the compound, how does the logP [3] read?
**A.** 3.86

**Q.** For `CCCN(C(C)C)C1COc2cccc(C(=O)NC(C)C)c2C1` (stereo not given), which logP [4] is on record?
**A.** 3.27

**Q.** For `CCn1cc(C(=O)NC(CCCNC(=N)N)C(=O)OC)c(=O)c2ccc(C)nc21` (stereo not given), which logP [5] is on record?
**A.** 0.39

**Q.** With `CCN(CC)CCN1c2ccccc2Sc2ccccc21` as the compound, how does the logP [6] read?
**A.** 5.94

**Q.** Which logD [7] does the source give for `Nc1ccc(CCN2CCN(c3cccc(C(F)(F)F)c3)CC2)cc1I` here?
**A.** 3.69

**Q.** Which logP [8] does the source give for `O=C(CCCN1CCN(c2ccccn2)CC1)c1ccc(F)cc1` here?
**A.** 3.3

**Q.** With `Oc1ccc(C(c2ccccc2)c2ccc(O)cc2)cc1` as the compound, how does the logP [9] read?
**A.** 4.3

**Q.** Which logD [10] does the source give for `CC(C)Cc1ccc(C(C)C(=O)OCN2C(=O)CCC2=O)cc1` (stereo not given) here?
**A.** 2.62

**Q.** With `O=C1OC2(c3ccc(O)cc3Oc3cc(O)ccc32)c2ccccc21` as the compound, how does the logP [11] read?
**A.** 4.3

**Q.** For `CCCN1CCN(c2cc3c(cc2F)c(=O)c(C(=O)O)cn3CC)CC1`, which logD [12] is on record?
**A.** 1.05

**Q.** With `O=S1(=O)OC(c2ccc(O)cc2)(c2ccc(O)cc2)c2ccccc21` as the compound, how does the logP [13] read?
**A.** 3.02

**Q.** With `CCN(CC)C(=O)Cc1c(-c2ccc(I)cc2)nc2ccc(Cl)cn12` as the compound, how does the logD [14] read?
**A.** 3.1

**Q.** For `COC1=C(OC)C(=O)C(CCCCCCCCCCBr)=C(C)C1=O`, which logD [15] is on record?
**A.** 2.49

**Q.** With `CC[C@H](Oc1ccccc1)C(=O)N[C@@H]1C(=O)N2[C@@H]1SC(C)(C)[C@@H]2C(=O)O` as the compound, how does the logP [16] read?
**A.** 2.58

**Q.** With `CCC(C)(CC)c1cc(NC(=O)c2c(OC)cccc2OC)on1` as the compound, how does the logP [17] read?
**A.** 3

**Q.** Which logP [18] does the source give for `c1ccc2c(c1)ccc1[nH]c3ccc4ccccc4c3c12` here?
**A.** 5.55

**Q.** Which logD [19] does the source give for `O=C(NCC(O)CO)c1c(I)c(C(=O)NCC(O)CO)c(I)c(N(CCO)C(=O)CO)c1I` (stereo not given) here?
**A.** -2.98

**Q.** Which logP [20] does the source give for `CC1(C)C(C=C2CCSC2=O)C1C(=O)OCc1ccccc1` (stereo not given) here?
**A.** 4.02

**Q.** For `COc1ccc(/C=C2\CCCN=C2c2cccnc2)c(OC)c1`, which logD [21] is on record?
**A.** 2.82

**Q.** With `COc1ccc(N2CCn3c(nc4ccccc4c3=O)C2C)cc1` (stereo not given) as the compound, how does the logP [22] read?
**A.** 1.29

**Q.** For `Fc1ccc(CN2CCN(Cc3cnn4ccccc34)CC2)cc1`, which logP [23] is on record?
**A.** 2.8

**Q.** Which logP [24] does the source give for `CC1=C(C(=O)Nc2nc3ccccc3s2)C(c2ccccc2)NC(=S)N1` (stereo not given) here?
**A.** 2.03

**Q.** Which logD [25] does the source give for `CN1CCc2cc(Cl)c(O)cc2C(c2cccc3ccoc23)C1` (stereo not given) here?
**A.** 3

**Q.** Which logP [26] does the source give for `O=C(NC12CC3CC(CC(C3)C1)C2)C(O)c1ccccc1` (stereo not given) here?
**A.** 3.09

**Q.** For `COc1ccc(N(CCCC(=O)O)C(=O)c2ccc(Cl)cc2)cc1`, which logD [27] is on record?
**A.** 2.7

**Q.** With `O=C1OC(c2ccc(O)c(S(=O)(=O)O)c2)(c2ccc(O)c(S(=O)(=O)O)c2)c2c(Br)c(Br)c(Br)c(Br)c21` as the compound, how does the logD [28] read?
**A.** -0.55

**Q.** Which logP [29] does the source give for `CCN1CCc2cc(S(=O)(=O)Nc3ccc(F)cc3F)cc(NC(C)=O)c21` here?
**A.** 1.4

**Q.** For `Cc1[nH]cnc1CSCCNc1nc(=O)c(Cc2ccc3c(c2)OCO3)c[nH]1`, which logD [30] is on record?
**A.** 2.11

**Q.** With `CC1COc2c(N3CCN(C)CC3)c(F)cc3c(=O)c(C(=O)O)cn1c23` (stereo not given) as the compound, how does the logP [31] read?
**A.** -0.05

**Q.** Which logP [32] does the source give for `c1ccc2cc3c(cc2c1)-c1cccc2cccc-3c12` here?
**A.** 6.11

**Q.** With `CCCCCCCc1c(C)[nH]c2cc(OC)c(Cl)cc2c1=O` as the compound, how does the logD [33] read?
**A.** 3.83

**Q.** For `C=C[C@@](C)(/C=C/c1ccc(O)cc1)CCC=C(C)C`, which logP [34] is on record?
**A.** 4.27

**Q.** With `Clc1ccc(N2CCN(Cc3cnn4c(I)cccc34)CC2)cc1` as the compound, how does the logD [35] read?
**A.** 2.36

**Q.** Which logP [36] does the source give for `CC(=O)CC(c1ccc([N+](=O)[O-])cc1)c1c(O)c2ccccc2oc1=O` (stereo not given) here?
**A.** 1.98

**Q.** For `CC(C)(C)C(=O)OCC(COC(=O)C(C)(C)C)OCn1cnc2c(=O)[nH]c(N)nc21`, which logP [37] is on record?
**A.** 1.71

**Q.** Which logP [38] does the source give for `CCCCCCCCCCCC(=O)N1CCCCCC1` here?
**A.** 7.3

**Q.** With `CN(C)CC/C=C1/c2ccccc2Sc2ccc(Cl)cc21` as the compound, how does the logP [39] read?
**A.** 5.18

**Q.** With `O=S(c1ccc(F)cc1)C1CCN(CCc2ccc(F)cc2F)CC1` (stereo not given) as the compound, how does the logP [40] read?
**A.** 2.67

**Q.** With `CCC(c1ccc(O)cc1)C(C(C)=O)c1ccc(O)cc1` (stereo not given) as the compound, how does the logP [41] read?
**A.** 3.1

**Q.** With `CNc1ccc(C=Cc2ccc(OCC(CO)CF)cc2)cc1` (stereo not given) as the compound, how does the logD [42] read?
**A.** 2.95

**Q.** With `c1ccc2c(c1)-c1cccc3c1c-2cc1ccccc13` as the compound, how does the logP [43] read?
**A.** 6.06

**Q.** With `c1ccc2c3c(ccc2c1)-c1cccc2cccc-3c12` as the compound, how does the logP [44] read?
**A.** 6.04
